Among the data in ChEMBL document CHEMBL1154198, “Chemical genetics of Plasmodium falciparum” (Nature, 2010) are EC50 values, retold here.

Each structure is given as a SMILES string.

For experiment [1], the system named is Plasmodium falciparum. Nature of the experiment: ST_JUDE: Plasmodium falciparum 3D7 EC50 (uM) as measured by SYBR green dye. It counts as functional, organism-based.
The test system of experiment [2] is Plasmodium falciparum. Nature of the experiment: ST_JUDE: Plasmodium falciparum K1 EC50 (uM) as measured by SYBR green dye. Format: functional, organism-based.

On to `COc1ccc(-c2onc(C(F)(F)F)c2Oc2cnn(-c3ccccc3)c2)c(O)c1`, for which the figures for the 50% effective concentration (EC50) in experiment [1] and in experiment [2] were 1.81 µM and 1.61 µM, respectively.
The matching figures for `Cc1nc2nc(NCc3cccc(Br)c3)nn2c(O)c1C`: greater than 15 µM and greater than 15 µM.
As to `CC(=O)N(C1=C(N2CCOCC2)C(=O)c2ccccc2C1=O)c1ccc(F)cc1`, the concentration for a half-maximal effect (EC50) in experiment [1] came out at 0.51 µM; in experiment [2] it was 0.548 µM.
The like results for `CN1CCN(c2nc(Nc3ccc(SC(F)F)cc3)c3cnn(-c4ccccc4)c3n2)CC1` were, in that order, 1.31 µM and 3.72 µM.
On to `CCCCc1ccc(OCC(=O)N/N=C/c2cccc(OC)c2)cc1`, for which the EC50 in experiment [1] and in experiment [2] was greater than 15 µM throughout.
Consider `Oc1ccc(Nc2nc(-c3ccccc3)c3cc(Br)ccc3n2)cc1`, for which the EC50 in experiment [1] was greater than 15 µM; in experiment [2] it was 3.05 µM.
The like results for `COc1ccc(N/C=C2/C(=O)N(c3ccc(OC)cc3)C(=O)c3ccccc32)cc1` were, in that order, greater than 15 µM and greater than 15 µM.
Take `O=[N+]([O-])c1cc(C(F)(F)F)ccc1NCCCNS(=O)(=O)c1ccc(Cl)cc1`: the EC50 in experiment [1] and in experiment [2] was greater than 15 µM throughout.
In the case of `Cc1cc(C)c2nc(C)cc(Nc3cccc(Cl)c3)c2c1`, the results for the EC50 in experiment [1] and in experiment [2] were 0.812 µM and 3.83 µM, respectively.
The like results for `CCN(CC)CCNC(=O)c1ccc(Cn2c(SCc3cccc(C)c3)nc3ccncc32)cc1` were, in that order, 6.75 µM and greater than 15 µM.
For the compound `CCCN(CCC)CCCNC(=S)Nc1ccc2nc(N3CCN(C)CC3)cc(C)c2c1`, the values for the concentration for a half-maximal effect (EC50) in experiment [1] and in experiment [2] were 3.4 µM and 5.25 µM, respectively.
The matching figures for `CC(C)(C)c1ccc(C(=O)Nc2cccc(NC(=O)c3cccs3)c2)cc1`: greater than 15 µM and greater than 15 µM.
The matching figures for `Oc1cccc2ccc[n+](CC(O)Cn3c4ccccc4c4ccccc43)c12` (configuration not stated): 1.31 µM and greater than 15 µM.
For the compound `Cc1ccc2ccc(C(Nc3ccccn3)c3cccc(Cl)c3)c(O)c2n1` (configuration not stated), the EC50 was found to be 4.13 µM in experiment [1] and 3.66 µM in experiment [2].
The like results for `COCc1cc(CN2CCN(c3cccc(C(F)(F)F)c3)CC2)c(O)c2ncccc12` were, in that order, 1.82 µM and 2.25 µM.
Regarding `O=C(CC1N=C2c3ccccc3N=C(SCc3cccc(F)c3)N2C1=O)NCc1ccco1` (configuration not stated), the results for the EC50 in experiment [1] and in experiment [2] were 2.31 µM and 2.01 µM, respectively.
The matching figures for `CCOC(=O)c1c(CNCCN(CC)CC)n(C)c2cc(Br)c(O)cc12`: 2.89 µM and 4.87 µM.
With `COc1ccc(Cn2c(SCc3cccc(F)c3)nc3nccnc3c2=O)cc1`, the concentration for a half-maximal effect (EC50) in experiment [1] and in experiment [2] was greater than 15 µM throughout.
With `COc1ccc(C2NCCc3c2[nH]c2ccccc32)cc1CN1CCN(c2ccc([N+](=O)[O-])cc2)CC1` (configuration not stated), the EC50 worked out at 3.65 µM in experiment [1] and 3.81 µM in experiment [2].
The like results for `COc1ccc(S(=O)(=O)/N=C2/C=C(Sc3nc[nH]n3)C(=O)c3ccccc32)cc1` were, in that order, 1.94 µM and 2.34 µM.
The matching figures for `Cc1c(C=O)c2ccccc2n1CC(=O)Nc1ccc(Br)c(Cl)c1`: 0.702 µM and 0.891 µM.
Consider `COc1cc(NC(=O)COc2cc(C)c(Cl)c(C)c2)cc(OC)c1`, for which the EC50 in experiment [1] and in experiment [2] was greater than 15 µM throughout.
`CCN1C(=O)c2ccccc2Sc2ccc(NC(=O)NCc3ccccc3Cl)cc21`: the EC50 in experiment [1] and in experiment [2] was greater than 15 µM throughout.
For `CCC1CCCCN1CCCNC(=S)Nc1ccc2nc(N3CCN(CC)CC3)cc(C)c2c1` (configuration not stated), the EC50 stood at 4.39 µM in experiment [1] and 9.17 µM in experiment [2].
In the case of `CC(C)/N=C1\C(=O)c2ccccc2C(O)=C1Cl`, the EC50 amounted to 1.23 µM in experiment [1] and 0.53 µM in experiment [2].
For the compound `CCO/C(O)=C1\C(C)=NC2=C(C(=O)CC(c3ccc(Cl)cc3)C2)C1c1ccc(O)c(OCC)c1` (configuration not stated), the EC50 in experiment [1] worked out at 0.881 µM; in experiment [2], 1.47 µM.
As for `CCOc1cccc(CNC2CC(C)(C)Cc3c2cnn3-c2ccc(C)cc2)c1O` (configuration not stated), the EC50 in experiment [1] was determined as 3.15 µM; in experiment [2], 0.795 µM.
With `COc1ccc(N2C(=O)c3cccnc3C2Nc2ccc(C)cc2Cl)cc1` (configuration not stated), the results for the EC50 in experiment [1] and in experiment [2] were 4 µM and 3.84 µM, respectively.
Regarding `CC(=O)N(C)C1=C(N2CCOCC2)C(=O)c2ccccc2C1=O`, the EC50 in experiment [1] was determined as 2.72 µM; in experiment [2] it was 4.78 µM.
On to `C=CCc1cccc(/C=N/NC(=O)c2cccs2)c1O`, for which the results for the EC50 in experiment [1] and in experiment [2] were greater than 15 µM and 6.81 µM, respectively.
For the compound `Oc1c(C(Nc2ccccn2)c2c(F)cccc2Cl)cc(Cl)c2cccnc12` (configuration not stated), the EC50 in experiment [1] and in experiment [2] was greater than 15 µM each time.
As to `COCCN1CCC(CN(Cc2ccncc2)Cc2ccc(CC(C)C)cc2)CC1`, the figures for the EC50 in experiment [1] and in experiment [2] were 6.73 µM and 5.3 µM, respectively.
The like results for `O=C(Nc1ccc2oc(-c3ccc(F)cc3Cl)nc2c1)C(Cl)(Cl)Cl` were, in that order, greater than 15 µM and greater than 15 µM.
The matching figures for `COc1cccc(C(=O)NC(c2ccc(C)cc2)c2cc(Cl)c3cccnc3c2O)c1` (configuration not stated): greater than 15 µM and greater than 15 µM.
The matching figures for `COc1ccc(-c2nn(C)c3sc(C(=O)Nc4cccc(C(F)(F)F)c4)cc23)cc1OC`: greater than 15 µM and greater than 15 µM.
As to `CCOC(=O)C1CCN(C(=O)CN(Cc2ccc(Cl)cc2)S(=O)(=O)c2ccc(C)cc2)CC1`, the figures for the EC50 in experiment [1] and in experiment [2] were greater than 15 µM and 2.18 µM, respectively.
For the compound `CCOc1cc(/C=C(\C#N)c2nn(CCO)c(N)c2C#N)cc(I)c1OC`, the EC50 in experiment [1] and in experiment [2] was greater than 15 µM in each case.
As for `O=S(=O)(NCC(c1cccnc1)N1CCN(c2ccc(F)cc2)CC1)c1ccc(Cl)cc1` (configuration not stated), the EC50 in experiment [1] and in experiment [2] was greater than 15 µM in each case.
On to `COc1cccc(C2=C(C(C)=O)Sc3nncn3N2C(C)=O)c1`, for which the EC50 stood at 3.01 µM in experiment [1] and 3.43 µM in experiment [2].
As for `C[n+]1ccccc1-c1nc2ccccc2s1`, the figures for the EC50 in experiment [1] and in experiment [2] were greater than 15 µM and 5.81 µM, respectively.
The matching figures for `CCN1CCN(c2cc(C)c3cc(NC(=O)/C=C/c4ccccc4OC(C)C)ccc3n2)CC1`: 1.06 µM and 2.98 µM.
The like results for `CCCCOC(=O)c1ccc(Nc2cc(C)nc3ccccc23)cc1` were, in that order, 3.4 µM and greater than 15 µM.
The like results for `O=C(Cc1ccccc1)N1CCOc2c(cc(-c3csc4ccccc34)cc2OCCc2ccccn2)C1` were, in that order, 1.63 µM and 0.762 µM.
For `C#CCN(CC=C)Cc1nc(-c2cc(OC)ccc2OC)oc1C`, the EC50 in experiment [1] and in experiment [2] was greater than 15 µM throughout.
Take `CCC1CCCCN1CC(O)COCCC12CC3CC(CC(C3)C1)C2` (configuration not stated): the EC50 was 7.2 µM in experiment [1] and 2.68 µM in experiment [2].
As for `O=C(O)c1ccc(CN2C(=O)c3ccccc3C2=O)cc1`, the EC50 in experiment [1] and in experiment [2] was greater than 15 µM in each case.
Regarding `Cc1ccc(NC(=O)C2(c3ccc([N+](=O)[O-])cc3)CCCC2)cc1`, the concentration for a half-maximal effect (EC50) in experiment [1] is greater than 15 µM; in experiment [2] it was 3.82 µM.
As to `O=C(N1CCCC1)C12CC3CC(CC(C3)C1)C2`, the EC50 in experiment [1] was 8.15 µM; in experiment [2], 7.65 µM.
The matching figures for `CCN(CC)c1ccc(/C=C/C(=O)NCCN2CCC(N(C)C3CCCCC3C)CC2)cc1` (configuration not stated): 2.29 µM and greater than 15 µM.
The like results for `O=C(Nc1ccc(F)c(Cl)c1)Nc1ccc(Cl)c(Cl)c1` were, in that order, 5.41 µM and 1.63 µM.
The like results for `O=C(Nc1ccccc1-c1nc2ccccc2s1)C(Cl)(Cl)Cl` were, in that order, greater than 15 µM and 2.69 µM.
